System: 377384-186-R-J1-PDC complex spheroid viability
Experiment: Anticancer human tumor 377384-186-R-J1-PDC patient-derived pancreatic carcinoma cell line growth inhibition [CLK]
Details: for IC50: curve of first compound; for viability, T/C: stronger effect = lower value
From the text: A high-throughput screen of multi-cell type tumor spheroids was designed to identify active combinations of […] and targeted small molecules. Complex spheroids include a stromal component modeled by human endothelial cells (HUVEC) and fibroblasts modeled by human mesenchymal stem cells (MSCs). The concentration ranges selected for each drug and investigational agent were based upon clinically achievable concentrations if the clinical Cmax of the agent was known.
Compounds. The drugs and investigational agents: cirtuvivint (SM08502; NSC835563), CC-671 (NSC850746), vemurafenib (NSC761431), tapotoclax (NSC804041), sotorasib (NSC818433), adagrasib (NSC831453), MRTX-1133 (NSC836407), BAY2416964 (NSC825713), copanlisib (NSC816437), inavolisib (NSC800729), abemaciclib (NSC768073), osimertinib (NSC779217), entinostat (NSC756642), eltanexor (KPT-8602, NSC794443), venetoclax (NSC766270), ceralasertib (NSC777638), bortezomib (NSC756655), olaparib (NSC753686), talazoparib (NSC767125), alisertib (NSC759677), peposertib (NSC802822), gemcitabine (NSC613327), 5-fluorouracil (NSC19893), SN-38 (NSC673596), oxaliplatin (NSC266046), paclitaxel (NSC125973), and doxorubicin (NSC123127), were obtained from the National Cancer Institute (NCI) Developmental Therapeutics Program Chemical Repository. The FDA-approved anticancer drug set is available from the Developmental Therapeutics Program at https://dtp.cancer.gov/organization/dscb/obtaining/available plates.htm. […] The stock solutions were prepared in dimethyl sulfoxide (DMSO, Sigma-Aldrich, St. Louis, MO, cat. D2650), except for the platinum complexes which were prepared in saline (Quality Biological, Gaithersburg, MD, cat. 114-055-101), at 800-fold the tested concentration and stored at -70 degrees C prior to their use. All drugs and investigational agents were tested over a range starting from a high concentration at or near the clinical Cmax and decreasing in half-log increments. If the clinical Cmax for an agent had not been determined, the highest concentration tested was 10 microM.
Cell Culture. All cells were maintained in an incubator at 37 degrees C and 5% CO2 with 95% humidity. The PDC lines were cultured according to standard operating procedures established by the NCI PDMR. Briefly, all PDCs were thawed and cultured in Matrigel-coated flasks prepared with a working solution of 1X Ham's F-12 nutrient mix, without supplementation (Invitrogen, Waltham, MA, cat. 11765054), 100 U/mL penicillin-streptomycin (Invitrogen, cat. 15140122), and 2.5% Matrigel (Corning Inc., Corning, NY, cat. 354248) for the first three passages. The 947758-054-R-J2-PDC line was cultured in 6B/Colon 1A media, which includes advanced DMEM/F-12 (Thermo Fisher Scientific, cat. 12634028), 10 mM HEPES (Thermo Fisher Scientific, cat. 15630080), 1X GlutaMAX supplement (Thermo Fisher Scientific, cat. 35050061), 0.1 mg/mL primocin (InvivoGen, cat. ant-pm-2), 10% defined fetal bovine serum, heat inactivated (HyClone Laboratories Inc., cat. SH30070.03HI), 1.25 mM N-Acetyl-L-cysteine (Sigma-Aldrich, cat. A9165), 10 mM nicotinamide (Sigma-Aldrich, cat. N0636), 1X B-27 supplement (Thermo Fisher Scientific, cat. 17504044), 1X N-2 supplement (Thermo Fisher Scientific, cat. 17502048), and 10 microM Y-27632 dihydrochloride (Tocris Bioscience, cat. 1254). The 876862-298-R-J1-PDC was cultured in 6E media, which includes all 6B/Colon 1A media components plus 50% L-WRN conditioned media (ATCC, cat. CRL-3276), 50 ng/mL recombinant human EGF recombinant protein (hEGF; Thermo Fisher Scientific, cat. PHG0311), 10 ng/mL recombinant human fibroblast growth factor 10 (hGFG-10; PeproTech, cat. 100-26), 1 ng/mL recombinant human fibroblast growth factor 2 (hFGF-2; PeproTech, cat. 100-18B), and 1 µM prostaglandin E2 (PGE2; Tocris, cat. 2296). The 227483-062-R1-J1-PDC line was cultured in Panc media, containing all 6E components except hFGF-2, with the addition of 500 nM SB-431542 (Selleckchem, cat. S1067) and 10 nM gastrin (Tocris, cat. 3006). […]

[1] = second compound 0.0316 µM, first compound 0.0316 µM
[2] = second compound 0.0316 µM, first compound 0.1 µM
[3] = second compound 0.0316 µM, first compound 0.316 µM
[4] = second compound 0.0316 µM, first compound 1 µM
[5] = second compound 0.0316 µM, first compound 3.16 µM
[6] = second compound 0.0316 µM, first compound 10 µM
[7] = second compound 0.1 µM, first compound 0.0316 µM
[8] = second compound 0.1 µM, first compound 0.1 µM
[9] = second compound 0.1 µM, first compound 0.316 µM
[10] = second compound 0.1 µM, first compound 1 µM
[11] = second compound 0.1 µM, first compound 3.16 µM
[12] = second compound 0.1 µM, first compound 10 µM
[13] = second compound 0.316 µM, first compound 0.0316 µM
[14] = second compound 0.316 µM, first compound 0.1 µM
[15] = second compound 0.316 µM, first compound 0.316 µM
[16] = second compound 0.316 µM, first compound 1 µM
[17] = second compound 0.316 µM, first compound 3.16 µM
[18] = second compound 0.316 µM, first compound 10 µM
[19] = second compound 1 µM, first compound 0.0316 µM
[20] = second compound 1 µM, first compound 0.1 µM
[21] = second compound 1 µM, first compound 0.316 µM
[22] = second compound 1 µM, first compound 1 µM
[23] = second compound 1 µM, first compound 3.16 µM
[24] = second compound 1 µM, first compound 10 µM
[25] = second compound 3.16 µM, first compound 0.0316 µM
[26] = second compound 3.16 µM, first compound 0.1 µM
[27] = second compound 3.16 µM, first compound 0.316 µM
[28] = second compound 3.16 µM, first compound 1 µM
[29] = second compound 3.16 µM, first compound 3.16 µM
[30] = second compound 3.16 µM, first compound 10 µM
[31] = second compound 10 µM, first compound 0.0316 µM
[32] = second compound 10 µM, first compound 0.1 µM
[33] = second compound 10 µM, first compound 0.316 µM
[34] = second compound 10 µM, first compound 1 µM
[35] = second compound 10 µM, first compound 3.16 µM
[36] = second compound 10 µM, first compound 10 µM
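Further: spheroids exposed to agents for 7 days before reading.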
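Wherever viability, T/C is given: luminescence signal used as a stand-in for viable cells.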

## CCCS(=O)(=O)Nc1ccc(F)c(C(=O)c2c[nH]c3ncc(-c4ccc(Cl)cc4)cc23)c1F + CN1CCN(c2cc(C(=O)Nc3cc4cc(-c5cnn(C)c5)ccc4cn3)ccn2)CC1
Second compound 0.0316 µM
  IC50: > 10000 nM
Second compound 0.1 µM
  IC50: 8850 nM
Second compound 0.316 µM
  IC50: < 31.6 nM
Second compound 1 µM
  IC50: < 31.6 nM
Second compound 3.16 µM
  IC50: < 31.6 nM
Second compound 10 µM
  IC50: < 31.6 nM
[1]
  viability, T/C: 122%
[2]
  viability, T/C: 122%
[3]
  viability, T/C: 141%
[4]
  viability, T/C: 140%
[5]
  viability, T/C: 117%
[6]
  viability, T/C: 64.8%
[7]
  viability, T/C: 117%
[8]
  viability, T/C: 78.5%
[9]
  viability, T/C: 135%
[10]
  viability, T/C: 121%
[11]
  viability, T/C: 97.1%
[12]
  viability, T/C: 44.4%
[13]
  viability, T/C: 34.8%
[14]
  viability, T/C: 21.6%
[15]
  viability, T/C: 31.2%
[16]
  viability, T/C: 33.4%
[17]
  viability, T/C: 28.9%
[18]
  viability, T/C: 15.4%
[19]
  viability, T/C: 1.07%
[20]
  viability, T/C: 3.44%
[21]
  viability, T/C: 1.53%
[22]
  viability, T/C: 1.74%
[23]
  viability, T/C: 1.66%
[24]
  viability, T/C: 1.39%
[25]
  viability, T/C: 0.5%
[26]
  viability, T/C: 0.57%
[27]
  viability, T/C: 1.26%
[28]
  viability, T/C: 0.82%
[29]
  viability, T/C: 0.51%
[30]
  viability, T/C: 0.48%
[31]
  viability, T/C: 0.54%
[32]
  viability, T/C: 0.62%
[33]
  viability, T/C: 0.58%
[34]
  viability, T/C: 0.68%
[35]
  viability, T/C: 0.66%
[36]
  viability, T/C: 0.26%

## COC1C=CCC(C)C(C)S(=O)(=O)NC(=O)c2ccc3c(c2)N(CC2CCC21)CC1(CCCc2cc(Cl)ccc21)CO3 (centres undefined) + CN1CCN(c2cc(C(=O)Nc3cc4cc(-c5cnn(C)c5)ccc4cn3)ccn2)CC1
Second compound 0.0316 µM
  IC50: 5480 nM
Second compound 0.1 µM
  IC50: 4950 nM
Second compound 0.316 µM
  IC50: < 31.6 nM
Second compound 1 µM
  IC50: < 31.6 nM
Second compound 3.16 µM
  IC50: < 31.6 nM
Second compound 10 µM
  IC50: < 31.6 nM
[1]
  viability, T/C: 114%
[2]
  viability, T/C: 95.2%
[3]
  viability, T/C: 96.5%
[4]
  viability, T/C: 102%
[5]
  viability, T/C: 84.9%
[6]
  viability, T/C: 11.8%
[7]
  viability, T/C: 115%
[8]
  viability, T/C: 69.2%
[9]
  viability, T/C: 98%
[10]
  viability, T/C: 84.5%
[11]
  viability, T/C: 76.8%
[12]
  viability, T/C: 10.2%
[13]
  viability, T/C: 32.5%
[14]
  viability, T/C: 20.9%
[15]
  viability, T/C: 24.3%
[16]
  viability, T/C: 20%
[17]
  viability, T/C: 20.5%
[18]
  viability, T/C: 3.02%
[19]
  viability, T/C: 0.47%
[20]
  viability, T/C: 1.66%
[21]
  viability, T/C: 1.4%
[22]
  viability, T/C: 1.15%
[23]
  viability, T/C: 0.84%
[24]
  viability, T/C: 0.75%
[25]
  viability, T/C: 0.58%
[26]
  viability, T/C: 0.33%
[27]
  viability, T/C: 0.31%
[28]
  viability, T/C: 0.37%
[29]
  viability, T/C: 0.49%
[30]
  viability, T/C: 0.39%
[31]
  viability, T/C: 0.42%
[32]
  viability, T/C: 0.68%
[33]
  viability, T/C: 0.44%
[34]
  viability, T/C: 0.59%
[35]
  viability, T/C: 0.53%
[36]
  viability, T/C: 0.17%

From PubChem BioAssay AID2060616 (Molecular Pharmacology Branch, DTP, NCI, 2025)
